In assay [1] the test system is inflammatory lesions (papules, pustules) of patients with papulopustular rosacea. Put plainly: Inflammatory lesion count change from baseline, 12-week vehicle-controlled study of E-BPO cream. It is filed as in vivo, human. The protocol:
(§1) Description: A multi-center, double-blind, randomized, vehicle-controlled, dose-range study of encapsulated 5% benzoyl peroxide (E-BPO) Cream and vehicle cream was performed to assess the efficacy and safety of E-BPO compared to vehicle. Study duration was 12 weeks and included approximately 350 male and female patients afflicted with papulopustular rosacea. Patients were at least 18 years of age, and met the inclusion/exclusion criteria described herein.
(§2) Dosing: Patients were randomized in a 2:1 ratio to the study product or vehicle treatment group, respectively. […]
(§3) Patients were admitted into the study after meeting all inclusion/exclusion criteria, including a clinical diagnosis of rosacea and after written informed consent has been obtained. […] At each visit, a 5-point IGA scale of rosacea; rosacea erythema, and telangiectasia; and inflammatory (papules, pustules) lesion counts were performed and recorded.
(§4) Evaluation of efficacy: The first application of the test product was applied at the investigational site at the end of the Baseline visit (Day 0) under the supervision and instruction of the designated investigational site staff. […] The evaluator also assessed local application site irritation (dryness, scaling, pruritus, stinging and burning) at Baseline and Weeks 2, 4, 8 and 12 (end of study). […]

Assay [2] has as its system patients afflicted with papulopustular rosacea. Put plainly: IGA success (2-grade improvement to clear or almost clear), 12-week double-blind vehicle-controlled study of E-BPO cream. It is filed as in vivo, human. To be noted: four weeks. The protocol: as §1, §2, §3, §4
For another assay, the system named is rosacea. As to conditions: BPO as the sole active agent; cited from earlier work.

SMILES strings stand for the structures.

In the case of `O=C(OOC(=O)c1ccccc1)c1ccccc1` [BPO, Benzoyl peroxide], in assay [1] (after at least 12 weeks of treatment), the “decrease in inflammatory lesions relative to the effect observed after treatment with vehicle cream” value is “more than 1.5 x”. For the same compound, the “decrease in inflammatory lesions” value in assay [1] (after only 2 weeks of treatment, on average) is “about 40%”. Besides, in assay [2], the “success in IGA relative to the effect observed after treatment with SOOLANTRA” value is recorded as “more than twice”. The response of lesions result in the assay with rosacea is recorded as “unresponsive”.
